In US8202855B2, “Substituted beta-lactams” (Allergan, Inc, priority 2008, dated 2012):

Tested on: lashes and adjacent hairs of patients having glaucoma
Assay: Observation of lashes in glaucoma patients treated in one eye
Format: in vivo
Details: glaucoma patients treated in only one eye
Source text: In the course of treating patients having glaucoma, treatment may only be appropriate in one eye. […] The lash appearance on the lids of the treated eyes would have appeared quite attractive if it represented a bilateral phenomenon. As a result of its asymmetric nature, the long lashes on one side could be construed as disturbing from a cosmetic standpoint. A systemic examination was preformed as a result of the asymmetric phenomenon. It soon became apparent that this altered appearance was not an isolated finding. […] Definite differences could be identified to varying degrees in the lashes and adjacent hairs of all patients who were taking the drug on a unilateral basis for longer than 6 months.
The changes in the lashes were apparent on gross inspection in several patients once attention was focused on the issue. In those with light colored hair and lashes, the differences were only seen easily with the aid of the high magnification and lighting capabilities of the slit lamp biomicroscope. In the course of glaucoma follow-up examination, attention is generally immediately focused on the eye itself. As a result of the high power magnification needed only one eye is seen at a time and the eye is seen at a high enough power that the lashes are not in focus. […]

With `CCNC(=O)CCC/C=C\C[C@@H]1[C@@H](/C=C/[C@@H](O)CCc2ccccc2)[C@H](O)C[C@@H]1O` [bimatoprost] the “lash appearance in treated eye versus non-treated eye” value was “longer, thicker, and fuller in the treated eye than in the non-treated eye”.
